The record followed here is patent publication US20220274980A1, “PHARMACOLOGICAL INHIBITORS OF THE ENL YEATS DOMAIN” (priority 2019, published 2022).

Data set [1] can be described thus: Half-life in human liver microsomes. In kind it is in vitro ADME. The settings on record: read-out: t1/2 (min) human liver microsomes. On the technique in general: Liver microsomes are a subcellular fraction often used to study metabolism.
Data set [2] deals with T1, ENL localization to chromatin of target gene promoters (Homo sapiens, UniProt Q03111).
T1 construct: 11 cells; endogenous in cells; host or cells: MV4;11
T1 sequence (Q03111 1-559): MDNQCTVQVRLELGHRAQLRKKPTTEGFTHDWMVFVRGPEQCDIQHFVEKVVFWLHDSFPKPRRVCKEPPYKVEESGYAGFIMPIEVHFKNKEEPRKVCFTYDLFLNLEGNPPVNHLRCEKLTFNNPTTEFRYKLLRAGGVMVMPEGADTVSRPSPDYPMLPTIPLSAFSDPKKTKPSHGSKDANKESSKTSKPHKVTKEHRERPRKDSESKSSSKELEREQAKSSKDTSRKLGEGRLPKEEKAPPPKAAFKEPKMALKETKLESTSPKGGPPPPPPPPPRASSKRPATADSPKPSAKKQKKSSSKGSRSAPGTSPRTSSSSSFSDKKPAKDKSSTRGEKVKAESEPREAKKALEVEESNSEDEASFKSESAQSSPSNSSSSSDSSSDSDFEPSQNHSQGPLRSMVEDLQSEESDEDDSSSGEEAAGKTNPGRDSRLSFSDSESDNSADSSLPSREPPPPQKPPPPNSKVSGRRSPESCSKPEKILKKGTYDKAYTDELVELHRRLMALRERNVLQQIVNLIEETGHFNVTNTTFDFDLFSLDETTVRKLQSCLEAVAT
Description: ENL ChIP-qPCR in MV4;11 cells. In kind it is cell-based. Particulars: HOX intergenic region as negative control locus. Here is the method:
ChIP-qPCR. Chromatin immunoprecipitation (ChIP)-qPCR of ENL was performed in MV4; 11 cells using 50 million cells per treatment. Crosslinking was performed in batches of 50 million cells in 50 mL tissue culture media by addition of 1/10 volume of 10× crosslinking solution (11% formaldehyde, 50 mM HEPES pH 7.3, 100 mM NaCl, 1 mM EDTA pH 8.0, 0.5 mM EGTA ph 8.0). After 10 min of crosslinking at room temperature, formaldehyde was quenched with 125 mM glycine, cells were then washed three times in PBS pH 7.4, flash frozen in liquid nitrogen, and stored at −80° C. Frozen pellets were thawed on ice, resuspended in cold lysis buffer 1 (LB1; 5 mL per 50 million cells; 50 mM HEPES pH 7.3, 140 mM NaCl, 1 mM EDTA, 10% glycerol, 0.5% NP-40, and 0.25% Triton X-100, Roche protease inhibitor cocktail), and rotated for 10 minutes at 4° C. LB1 was removed and pelletswere resuspended in cold lysis buffer 2 (LB2; 5 mL per 50 million cells; 10 mM Tris-HCl pH 8.0, 200 mM NaCl, 1 mM EDTA pH 8.0 and 0.5 mM EGTA pH 8.0, Roche protease inhibitor cocktail) and rotated for 10 minutes at 4° C. LB2 was removed and pellets were resuspended in cold sonication buffer (1.5 mL per 50 million cells; 50 mM HEPES pH 7.3, 140 mM NaCl, 1 mM EDTA, 1 mM EGTA, 1% Triton X-100, 0.1% Na-deoxycholate, 0.1% SDS, Roche protease inhibitor cocktail). […] Results were quantified as percentage of the input sample.
(Quantitative PCR measures a nucleic acid by following its amplification.)

Turning to `O=C(NC1CCC1)c1ccc2nc(-c3cccc(NS(=O)(=O)NCCN4CCCCC4)c3)cn2c1` [Compound 93], in data set [1], the half-life came to 22.6 min. In data set [2], the “localization of ENL to chromatin of target gene promoters by ChIP-qPCR” value is “prevents localization of ENL to chromatin of target gene promoters”.
